Assay results as given in ChEMBL document CHEMBL5375957, “Optimization of Novel α7 Nicotinic Acetylcholine Receptor Positive Allosteric Modulators and the Discovery of a Preclinical Development Candidate Molecule (RGH-560)” (J Med Chem, 2023).
Converted amounts (≈) assume the structure as drawn. The source made the active and inactive calls. The calls are words filed in the database; no cut-off is given here.

Legend:
[1] = Kinetic solubility of compound at pH 7.4 incubated for 2 hrs by UV-HPLC analysis; type: physicochemical; details: buffer, read-out: Kinetic_solubility
[2] = Metabolic stability in human liver microsome assessed as intrinsic clearance measured per mg of protein incubated for 40 mins; type: ADME; details: liver microsomes, read-out: CLH
[3] = Metabolic stability in Wistar rat liver microsome assessed as intrinsic clearance measured per mg of protein incubated for 40 mins; type: ADME; details: liver microsomes, read-out: CLH
[4] = Metabolic stability in NMRI mouse liver microsome assessed as intrinsic clearance measured per mg of protein incubated for 40 mins; type: ADME; details: liver microsomes, read-out: CLH
Mus musculus [5] = assay: Cognitive activity in scopolamine induced amnesia NMRI mouse model assessed as recognition index at 1 to 10 mg/kg, ip pretreated with compound for 30 mins followed by scopolamine induction by Y maze test; type: functional, organism-based; details: dose 1-10 mg/kg
[6] = Drug concentration in NMRI mouse brain at 1 mg/kg, ip measured after 1 hr by HPLC-MS/MS analysis; type: ADME, organism-based; details: read-out: Ct
[7] = Drug concentration in NMRI mouse brain at 3 mg/kg, ip measured after 1 hr by HPLC-MS/MS analysis; type: ADME, organism-based; details: read-out: Ct
[8] = Drug concentration in NMRI mouse brain at 10 mg/kg, ip measured after 1 hr by HPLC-MS/MS analysis; type: ADME, organism-based; details: read-out: Ct
[9] = Drug concentration in NMRI mouse plasma at 1 mg/kg, ip measured after 1 hr by HPLC-MS/MS analysis; type: ADME, organism-based
[10] = Drug concentration in NMRI mouse plasma at 3 mg/kg, ip measured after 1 hr by HPLC-MS/MS analysis; type: ADME, organism-based
[11] = Drug concentration in NMRI mouse plasma at 10 mg/kg, ip measured after 1 hr by HPLC-MS/MS analysis; type: ADME, organism-based
[12] = Ratio of drug concentration in brain to plasma in NMRI mouse plasma at 1 mg/kg, ip measured after 1 hr by HPLC-MS/MS analysis; type: ADME, organism-based
[13] = Ratio of drug concentration in brain to plasma in NMRI mouse plasma at 3 mg/kg, ip measured after 1 hr by HPLC-MS/MS analysis; type: ADME, organism-based
[14] = Ratio of drug concentration in brain to plasma in NMRI mouse plasma at 10 mg/kg, ip measured after 1 hr by HPLC-MS/MS analysis; type: ADME, organism-based
Mus musculus [15] = assay: Cognitive activity in scopolamine induced amnesia ip dosed NMRI mouse model assessed as minimum effective dose pretreated with compound for 30 mins followed by scopolamine induction; type: functional; details: 0.5 h
[16] = Metabolic stability in human Hepatocyte assessed as intrinsic clearance measured per million cells incubated for 40 mins; type: ADME, cell-based; details: hepatocytes, read-out: CLH
[17] = Toxicity in NMRI mouse assessed as effect on locomotor activity at 30 mg/kg, ip; type: organism-based; details: in vivo
[18] = target: Neuronal acetylcholine receptor subunit alpha-7 (Homo sapiens, UniProt P36544); assay: Positive allosteric modulator activity at human alpha7 nAChR expressed in Flp-In HEK293 cells assessed as increase in calcium influx incubated for 10 mins by fluorescence based analysis; type: cell-based
[19] = Efflux ratio of apparent permeability in human Caco-2 cells at 10 uM; type: ADME, cell-based
[20] = Apparent permeability in human Caco2 cells at 10 uM; type: ADME, cell-based; details: Caco-2
[21] = target: Voltage-gated inwardly rectifying potassium channel KCNH2 (Homo sapiens, UniProt Q12809); assay: Inhibition of hERG transfected in CHO cells at -80 mV holding potential by automated patch clamp assay; type: toxicity, cell-based
Chain of Voltage-gated inwardly rectifying potassium channel KCNH2 (Q12809 whole entry): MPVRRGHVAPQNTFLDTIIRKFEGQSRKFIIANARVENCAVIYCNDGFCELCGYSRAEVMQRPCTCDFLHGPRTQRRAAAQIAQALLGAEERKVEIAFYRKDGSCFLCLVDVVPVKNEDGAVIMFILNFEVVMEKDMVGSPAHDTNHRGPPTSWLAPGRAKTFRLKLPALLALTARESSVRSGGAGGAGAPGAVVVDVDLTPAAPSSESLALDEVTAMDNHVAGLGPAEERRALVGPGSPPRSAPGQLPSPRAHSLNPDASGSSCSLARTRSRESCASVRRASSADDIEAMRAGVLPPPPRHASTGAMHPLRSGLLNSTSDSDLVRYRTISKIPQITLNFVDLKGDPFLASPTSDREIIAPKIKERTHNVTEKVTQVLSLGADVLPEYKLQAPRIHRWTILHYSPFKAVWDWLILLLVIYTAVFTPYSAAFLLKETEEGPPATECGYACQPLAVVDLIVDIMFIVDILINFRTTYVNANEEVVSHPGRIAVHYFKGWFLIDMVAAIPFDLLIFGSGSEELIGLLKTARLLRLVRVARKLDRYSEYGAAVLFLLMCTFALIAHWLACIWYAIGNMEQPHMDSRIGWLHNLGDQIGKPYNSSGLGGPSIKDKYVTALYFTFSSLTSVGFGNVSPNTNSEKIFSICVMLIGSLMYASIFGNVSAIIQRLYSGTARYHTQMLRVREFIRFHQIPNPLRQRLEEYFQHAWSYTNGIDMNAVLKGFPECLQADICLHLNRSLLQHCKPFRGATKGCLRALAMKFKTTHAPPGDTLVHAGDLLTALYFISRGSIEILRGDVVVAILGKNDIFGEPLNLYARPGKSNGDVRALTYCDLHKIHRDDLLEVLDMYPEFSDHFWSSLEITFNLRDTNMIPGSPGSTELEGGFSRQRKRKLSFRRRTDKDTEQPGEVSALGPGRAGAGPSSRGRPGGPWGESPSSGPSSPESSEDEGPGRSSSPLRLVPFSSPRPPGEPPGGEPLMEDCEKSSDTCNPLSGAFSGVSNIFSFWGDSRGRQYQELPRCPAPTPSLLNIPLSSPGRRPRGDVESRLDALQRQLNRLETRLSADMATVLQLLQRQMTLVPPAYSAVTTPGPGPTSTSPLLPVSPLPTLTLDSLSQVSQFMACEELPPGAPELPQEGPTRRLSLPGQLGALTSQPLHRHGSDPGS

Chain of Neuronal acetylcholine receptor subunit alpha-7 (P36544 whole entry): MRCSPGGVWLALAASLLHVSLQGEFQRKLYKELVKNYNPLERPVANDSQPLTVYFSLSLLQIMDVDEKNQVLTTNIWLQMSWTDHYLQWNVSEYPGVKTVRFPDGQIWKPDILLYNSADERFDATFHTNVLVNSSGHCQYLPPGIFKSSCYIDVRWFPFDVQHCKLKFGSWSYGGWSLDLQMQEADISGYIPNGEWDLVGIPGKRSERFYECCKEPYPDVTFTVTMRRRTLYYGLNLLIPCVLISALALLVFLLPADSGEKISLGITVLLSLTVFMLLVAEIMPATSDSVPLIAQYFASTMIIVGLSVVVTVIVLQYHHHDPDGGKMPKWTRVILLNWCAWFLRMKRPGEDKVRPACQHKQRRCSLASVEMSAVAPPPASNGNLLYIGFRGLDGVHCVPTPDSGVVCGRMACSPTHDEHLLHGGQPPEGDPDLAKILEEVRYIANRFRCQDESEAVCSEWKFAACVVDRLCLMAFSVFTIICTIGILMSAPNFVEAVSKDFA

| SMILES | solubility kinetic at 2 h [1] [µM] | microsomal CLint [2] [µL/min/mg] | microsomal CLint [3] [µL/min/mg] | microsomal CLint [4] [µL/min/mg] | concentration at 1 h [6] [ng/g] | concentration at 1 h [7] [ng/g] | concentration at 1 h [8] [ng/g] | concentration at 1 h [9] [ng/mL] | concentration at 1 h [10] [ng/mL] | concentration at 1 h [11] [ng/mL] | Kp at 1 h [12] | Kp at 1 h [13] | Kp at 1 h [14] | EC50 [18] [µM] | Activity (Mus musculus [5]) | also measured |
| --- | --- | --- | --- | --- | --- | --- | --- | --- | --- | --- | --- | --- | --- | --- | --- | --- |
| Cn1ccc2cc(CNC(=O)N3CC(COc4ccc(C(F)(F)F)cc4)C3)cnc21 | 2.5 (≈ 1.05 µg/mL) | 17 | 77 | 123 | 46.8 | 174 | 438 | 179 | 689 | 2090 | 0.26 | 0.25 | 0.22 | 0.2 | Active | – |
| O=C(NCc1ccc2[nH]ccc2c1)N1CC(COc2ccc(C(F)(F)F)c(F)c2)C1 | 14.2 (≈ 5.98 µg/mL) | 39 | 44 | 36 | 201 | 678 | 2810 | 167 | 610 | 4230 | 1.2 | 1.12 | 0.66 | 0.085 | Active | efflux ratio at 10 µM [19]: 1.3; Papp at 10 µM [20]: 63 ×10⁻⁶ cm/s; MED (Mus musculus [15]): 3 mg/kg; IC50 [21]: 10 µM |
| Cn1ccc2cc(CNC(=O)N3CC4(CC(=O)c5ccccc5O4)C3)ccc21 | 51.5 (≈ 19.3 µg/mL) | 24 | 46 | 52 | – | – | – | – | – | – | – | – | – | – | Active | – |
| O=C(NCc1ccc2[nH]cc(Cl)c2c1)N1CC(COc2ccc(C(F)(F)F)cc2)C1 | 12 (≈ 5.25 µg/mL) | 25 | 23 | 43 | – | – | – | – | – | – | – | – | – | 0.5 | – | – |

Continued, in another order:

| solubility kinetic at 2 h [1] [µM] | microsomal CLint [2] [µL/min/mg] | microsomal CLint [3] [µL/min/mg] | microsomal CLint [4] [µL/min/mg] | concentration at 1 h [6] [ng/g] | concentration at 1 h [7] [ng/g] | concentration at 1 h [8] [ng/g] | concentration at 1 h [9] [ng/mL] | concentration at 1 h [10] [ng/mL] | concentration at 1 h [11] [ng/mL] | Kp at 1 h [12] | Kp at 1 h [13] | Kp at 1 h [14] | EC50 [18] [µM] | SMILES | Activity (Mus musculus [5]) | also measured |
| --- | --- | --- | --- | --- | --- | --- | --- | --- | --- | --- | --- | --- | --- | --- | --- | --- |
| 46 (≈ 18.1 µg/mL) | 13 | 30 | 49 | 29 | 78.5 | 248 | 107 | 262 | 2050 | 0.27 | 0.3 | 0.31 | – | Cn1ccc2cc(CNC(=O)N3CC4(CC(=O)c5ccc(F)cc5O4)C3)ccc21 | Active | MED (Mus musculus [15]): 10 mg/kg; hepatocyte CLint [16]: 10.3 µL/min/1e6 cells; Activity [17]: Non-Toxic |
| 38.7 (≈ 15.2 µg/mL) | 14 | 25 | 64 | – | – | – | – | – | – | – | – | – | 0.1 | Cc1cc2cc(CNC(=O)N3CC4(CC(=O)c5ccc(F)cc5O4)C3)ccc2[nH]1 | Active | – |
| 21.1 (≈ 8.35 µg/mL) | 22 | 176 | 178 | – | – | – | – | – | – | – | – | – | 0.23 | O=C1CC2(CN(C(=O)NCc3ccc4[nH]c(Cl)cc4c3)C2)Oc2ccccc21 | – | – |
